Legend:
NAD kinase [1] = target: T1, NAD kinase (Staphylococcus aureus (strain COL), UniProt Q5HH78); experiment: (§1) Inhibition of Staphylococcus aureus COL NADK expressed in Escherichia coli BL21(DE3) assessed as reduction in NADP production using NAD as substrate by glucose-6-phosphate dehydrogenase coupled enzyme based spectrophotometric method; set-up: species or system Staphylococcus aureus subsp. aureus COL
T1 sequence (Q5HH78 whole entry): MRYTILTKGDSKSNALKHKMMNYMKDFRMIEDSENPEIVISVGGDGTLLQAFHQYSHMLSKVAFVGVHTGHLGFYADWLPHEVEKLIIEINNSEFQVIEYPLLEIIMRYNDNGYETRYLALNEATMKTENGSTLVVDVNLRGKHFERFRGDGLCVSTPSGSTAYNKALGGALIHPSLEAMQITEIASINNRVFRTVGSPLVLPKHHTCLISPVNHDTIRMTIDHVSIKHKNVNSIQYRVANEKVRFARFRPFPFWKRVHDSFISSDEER

[2] = Cytotoxicity against human MRC5 cells up to 1 x 10^-4M; type: toxicity, cell-based
[3] = Competitive inhibition of Listeria monocytogenes C-terminal His6-tagged NADK1 expressed in Escherichia coli BL21(DE3) assessed as reduction in NADP production using varying levels of NAD as substrate by glucose-6-phosphate dehydrogenase coupled enzyme based spectrophotometric method
[4] = target: T2, NAD kinase (Homo sapiens) (UniProt O95544); experiment: Inhibition of human NADK expressed in Escherichia coli BL21(DE3) assessed as reduction in NADP production at 500 uM using NAD as substrate by glucose-6-phosphate dehydrogenase coupled enzyme based spectrophotometric method relative to control
T2 sequence (whole entry): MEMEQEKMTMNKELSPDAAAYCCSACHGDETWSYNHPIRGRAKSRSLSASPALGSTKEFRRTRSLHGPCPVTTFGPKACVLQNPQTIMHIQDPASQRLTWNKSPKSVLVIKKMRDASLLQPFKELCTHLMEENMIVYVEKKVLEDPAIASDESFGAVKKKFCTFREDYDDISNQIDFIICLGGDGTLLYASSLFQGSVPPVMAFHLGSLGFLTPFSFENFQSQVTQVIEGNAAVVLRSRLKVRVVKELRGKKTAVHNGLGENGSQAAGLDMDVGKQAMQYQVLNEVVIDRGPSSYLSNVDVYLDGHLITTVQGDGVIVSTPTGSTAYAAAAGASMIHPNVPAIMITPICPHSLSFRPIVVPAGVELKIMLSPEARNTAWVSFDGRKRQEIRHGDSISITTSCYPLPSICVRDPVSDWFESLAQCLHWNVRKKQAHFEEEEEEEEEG

NAD kinase [5] = target: T3, NAD kinase (Homo sapiens, UniProt O95544); experiment: Inhibition of human NADK expressed in Escherichia coli BL21(DE3) assessed as reduction in NADP production using NAD as substrate by glucose-6-phosphate dehydrogenase coupled enzyme based spectrophotometric method
T3 sequence (O95544 whole entry): T2 sequence (whole entry)

Bacillus subtilis = experiment: (§2) Inhibition of Bacillus subtilis NADK1 expressed in Escherichia coli BL21(DE3) assessed as reduction in NADP production at 300 uM using NAD as substrate by glucose-6-phosphate dehydrogenase coupled enzyme based spectrophotometric method relative to control
[6] = Inhibition of Bacillus subtilis NADK1 harboring Listeria monocytogenes NADK1 segment 2 expressed in Escherichia coli BL21(DE3) assessed as reduction in NADP production using NAD as substrate by glucose-6-phosphate dehydrogenase coupled enzyme based spectrophotometric method
[7] = Inhibition of Listeria monocytogenes C-terminal His6-tagged NADK1 P132S mutant expressed in Escherichia coli BL21(DE3) assessed as reduction in NADP production using varying levels of NAD as substrate by glucose-6-phosphate dehydrogenase coupled enzyme based spectrophotometric method
[8] = as §1, with “of Listeria monocytogenes C-terminal His6-tagged NADK1 harboring” for “of”, “NADK segment 1” for “NADK”
[9] = Inhibition of human NADK harboring Listeria monocytogenes NADK1 segment 1 expressed in Escherichia coli BL21(DE3) assessed as reduction in NADP production using NAD as substrate by glucose-6-phosphate dehydrogenase coupled enzyme based spectrophotometric method
[10] = Inhibition of Staphylococcus aureus COL NADK S132P mutant expressed in Escherichia coli BL21(DE3) assessed as reduction in NADP production using NAD as substrate by glucose-6-phosphate dehydrogenase coupled enzyme based spectrophotometric method; set-up: species or system Staphylococcus aureus subsp. aureus COL
[11] = Inhibition of Bacillus subtilis NADK1 S132P mutant expressed in Escherichia coli BL21(DE3) assessed as reduction in NADP production using NAD as substrate by glucose-6-phosphate dehydrogenase coupled enzyme based spectrophotometric method
[12] = Inhibition of Bacillus subtilis NADK1 harboring Listeria monocytogenes NADK1 segment 1 expressed in Escherichia coli BL21(DE3) assessed as reduction in NADP production using NAD as substrate by glucose-6-phosphate dehydrogenase coupled enzyme based spectrophotometric method
Listeria monocytogenes = experiment: as §2, with “Listeria monocytogenes C-terminal His6-tagged” for “Bacillus subtilis”, “control relative to control” for “control”
[13] = target: T2, NAD kinase (Homo sapiens); experiment: Inhibition of human NADK expressed in Escherichia coli BL21(DE3) assessed as reduction in NADP production at 250 uM using NAD as substrate by glucose-6-phosphate dehydrogenase coupled enzyme based spectrophotometric method relative to control
[14] = Ratio of Ki for human NADK harboring Listeria monocytogenes NADK1 segment 1 expressed in Escherichia coli BL21(DE3) to Ki for human NADK expressed in Escherichia coli BL21(DE3)
[15] = target: T2, NAD kinase (Homo sapiens); experiment: Inhibition of human NADK expressed in Escherichia coli BL21(DE3) assessed as reduction in NADP production at 400 uM using NAD as substrate by glucose-6-phosphate dehydrogenase coupled enzyme based spectrophotometric method relative to control

Row | Structure (SMILES) | IC50 (NAD kinase [1]) | Ki (NAD kinase [5]) | Activity [2] | Ki [3] | also measured
1 | Nc1ncnc2c1nc(SCCC(=O)NCCc1cccc(Br)c1)n2[C@@H]1O[C@H](CO)[C@@H](O)[C@H]1O | > 400 µM | – | Non-Toxic | 50 µM | –
2 | Nc1ncnc2c1nc(SCC(=O)NCCc1ccc(Cl)cc1)n2[C@@H]1O[C@H](CO)[C@@H](O)[C@H]1O | – | – | Non-Toxic | 40 µM | inhibition [4]: 20%
3 | Nc1ncnc2c1nc(SCC(=O)NCCc1c[nH]c3ccccc13)n2[C@@H]1O[C@H](CO)[C@@H](O)[C@H]1O | – | – | Non-Toxic | 2 µM | inhibition [4]: 20%
4 | [N-]=[N+]=NC[C@H]1O[C@@H](n2c(SCC(=O)NCCc3cccc(Br)c3)nc3c(N)ncnc32)[C@H](O)[C@@H]1O | > 400 µM | 330 µM | Non-Toxic | 1 µM | inhibition (Bacillus subtilis): 15%; Ki [6]: 30 µM; Ki [7]: 10 µM; Ki [8]: 2500 nM; Ki [9]: 75 µM; Ki [10]: 170 µM; Ki [11]: 100 µM; Ki [12]: 55 µM
5 | C#Cc1cccc(CCNC(=O)CSc2nc3c(N)ncnc3n2[C@@H]2O[C@H](CN=[N+]=[N-])[C@@H](O)[C@H]2O)c1 | – | – | Non-Toxic | 6 µM | inhibition [13]: 20%
6 | [N-]=[N+]=NC[C@H]1O[C@@H](n2c(SCC(=O)NCCc3ccccc3)nc3c(N)ncnc32)[C@H](O)[C@@H]1O | > 400 µM | 350 µM | Non-Toxic | 5 µM | Ratio Ki [14]: 3
7 | Nc1ncnc2c1nc(SCC(=O)NCCc1ccc(Cl)c(Cl)c1)n2[C@@H]1O[C@H](CO)[C@@H](O)[C@H]1O | – | 425 µM | Non-Toxic | 22 µM | –
8 | CCNC(=O)NC[C@H]1O[C@@H](n2c(SCC(=O)NCCc3ccc(Cl)c(Cl)c3)nc3c(N)ncnc32)[C@H](O)[C@@H]1O | – | – | Non-Toxic | 3 µM | inhibition [13]: 10%
9 | Nc1ncnc2c1nc(SCC(=O)NCCc1c[nH]c3ccc(Cl)cc13)n2[C@@H]1O[C@H](CO)[C@@H](O)[C@H]1O | – | 775 µM | Non-Toxic | 0.25 µM | –

Second part, led by results:

Row | IC50 (NAD kinase [1]) | Ki (NAD kinase [5]) | Structure (SMILES) | Activity [2] | Ki [3] | also measured
10 | > 400 µM | – | [N-]=[N+]=NC[C@H]1O[C@@H](n2c(SCC(=O)NCc3cccc(Br)c3)nc3c(N)ncnc32)[C@H](O)[C@@H]1O | Non-Toxic | 25 µM | –
11 | > 400 µM | 140 µM | C#CCNC(=O)CSc1nc2c(N)ncnc2n1[C@@H]1O[C@H](CN=[N+]=[N-])[C@@H](O)[C@H]1O | Non-Toxic | 30 µM | –
12 | > 400 µM | 220 µM | [N-]=[N+]=NC[C@H]1O[C@@H](n2c(SCC(=O)NCc3ccnc(Cl)c3)nc3c(N)ncnc32)[C@H](O)[C@@H]1O | Non-Toxic | – | inhibition (Listeria monocytogenes): 20%
13 | > 400 µM | 335 µM | Nc1ncnc2c1nc(SCC(=O)NCCc1cccc(Br)c1)n2[C@@H]1O[C@H](CO)[C@@H](O)[C@H]1O | Non-Toxic | 2 µM | –
14 | > 400 µM | 150 µM | [N-]=[N+]=NC[C@H]1O[C@@H](n2c(SCC(=O)NCCCc3ccccc3)nc3c(N)ncnc32)[C@H](O)[C@@H]1O | Non-Toxic | 55 µM | –
15 | > 400 µM | – | Nc1ncnc2c1nc(SCC(=O)NCCc1ccccc1)n2[C@@H]1O[C@H](CO)[C@@H](O)[C@H]1O | Non-Toxic | 140 µM | inhibition [15]: 10%

Source: ChEMBL document CHEMBL3875180, “8-Thioalkyl-adenosine derivatives inhibit Listeria monocytogenes NAD kinase through a novel binding mode” (Eur J Med Chem, 2016)
